Measured values published in ChEMBL document CHEMBL3885861, “Open TG-GATES”.

Species on record: Rattus norvegicus
Experiment: Open TG-GATES - Regimen: Single
Assay type: toxicity, organism-based, Sprague-Dawley
Design: regimen Single, gender Male, age 6 weeks
Settings: in vivo, po, route gavage; for gamma-GTP / ALP / ALT / AST / BUN / CRE / Ca / Cl / DBIL / GLC / IP / K / LDH / Na / PL / RALB / TBIL / TC / TG / TP: tissue Plasma; for APTT / Bas / Eos / Fbg / Hb / Ht / Lym / MCH / MCHC / Mono / Neu / Plat / RBC / Ret / WBC: tissue Blood; for KIDNEY_L / KIDNEY_R / KIDNEY_TOTAL: tissue Kidney; for LIVER: tissue Liver

In the case of `O=C(CCCN1CCC(O)(c2ccc(Cl)cc2)CC1)c1ccc(F)cc1` [HALOPERIDOL], the gamma-GTP (0 mg/kg, 24 h, dose level Control) is reported as 1 IU/L, the TERMINAL_BW (3 mg/kg, 3 h, dose level Low) is reported as 203.1 g and the APTT (3 mg/kg, 3 h, dose level Low) is reported as 16.9 s. The Bas (3 mg/kg, 3 h, dose level Low) was 0%, the Eos (3 mg/kg, 3 h, dose level Low) was 0.8% and the Fbg (3 mg/kg, 3 h, dose level Low) was 205.8 mg/dL. It also gave a Hb (3 mg/kg, 3 h, dose level Low) of 13.5 g/dL, a Ht (3 mg/kg, 3 h, dose level Low) of 40.4% and a Lym (3 mg/kg, 3 h, dose level Low) of 70.4%. For the same compound, the MCH (3 mg/kg, 3 h, dose level Low) was 21.8 pg, the MCHC (3 mg/kg, 3 h, dose level Low) was 33.5% and the Mono (3 mg/kg, 3 h, dose level Low) was 8.2%. For the same compound, the Neu (3 mg/kg, 3 h, dose level Low) was 20.6%, the Plat (3 mg/kg, 3 h, dose level Low) was 101.1 x10_4/uL and the RBC (3 mg/kg, 3 h, dose level Low) was 620.8 x10_4/ul. The Ret (3 mg/kg, 3 h, dose level Low) was 8.3%, the WBC (3 mg/kg, 3 h, dose level Low) was 102.1 x10_2/uL and the KIDNEY_L (3 mg/kg, 3 h, dose level Low) was 0.9 g. For the same compound, the KIDNEY_R (3 mg/kg, 3 h, dose level Low) was 0.9 g, the KIDNEY_TOTAL (3 mg/kg, 3 h, dose level Low) was 1.8 g and the LIVER (3 mg/kg, 3 h, dose level Low) was 9.6 g. It also gave an ALP (3 mg/kg, 3 h, dose level Low) of 1074.8 IU/L, an ALT (3 mg/kg, 3 h, dose level Low) of 42.2 IU/L and an AST (3 mg/kg, 3 h, dose level Low) of 61.2 IU/L. It also gave a BUN (3 mg/kg, 3 h, dose level Low) of 12.6 mg/dL, a CRE (3 mg/kg, 3 h, dose level Low) of 0.5 mg/dL and a Ca (3 mg/kg, 3 h, dose level Low) of 11.1 mg/dL. For the same compound, the Cl (3 mg/kg, 3 h, dose level Low) was 105.2 meq/L, the DBIL (3 mg/kg, 3 h, dose level Low) was 0.028 mg/dL and the GLC (3 mg/kg, 3 h, dose level Low) was 202.8 mg/dL. For the same compound, the IP (3 mg/kg, 3 h, dose level Low) was 10.4 mg/dL, the K (3 mg/kg, 3 h, dose level Low) was 4.7 meq/L and the LDH (3 mg/kg, 3 h, dose level Low) was 92.6 IU/L. It also gave a Na (3 mg/kg, 3 h, dose level Low) of 139.4 meq/L, a PL (3 mg/kg, 3 h, dose level Low) of 141.2 mg/dL and an RALB (3 mg/kg, 3 h, dose level Low) of 3.6 g/dL. For the same compound, the TBIL (3 mg/kg, 3 h, dose level Low) was 0.3 mg/dL, the TC (3 mg/kg, 3 h, dose level Low) was 78.6 mg/dL and the TG (3 mg/kg, 3 h, dose level Low) was 41.6 mg/dL. For the same compound, the TP (3 mg/kg, 3 h, dose level Low) was 5.7 g/dL, the gamma-GTP (3 mg/kg, 3 h, dose level Low) was 1.4 IU/L and the TERMINAL_BW (3 mg/kg, 6 h, dose level Low) was 200.5 g. It also gave an APTT (3 mg/kg, 6 h, dose level Low) of 16.6 s, a Bas (3 mg/kg, 6 h, dose level Low) of 0% and an Eos (3 mg/kg, 6 h, dose level Low) of 0.6%. It also gave a Fbg (3 mg/kg, 6 h, dose level Low) of 205.2 mg/dL, a Hb (3 mg/kg, 6 h, dose level Low) of 13.5 g/dL and a Ht (3 mg/kg, 6 h, dose level Low) of 40.5%. It also gave a Lym (3 mg/kg, 6 h, dose level Low) of 77%, an MCH (3 mg/kg, 6 h, dose level Low) of 21.7 pg and an MCHC (3 mg/kg, 6 h, dose level Low) of 33.3%. For the same compound, the Mono (3 mg/kg, 6 h, dose level Low) was 7.2%, the Neu (3 mg/kg, 6 h, dose level Low) was 15.2% and the Plat (3 mg/kg, 6 h, dose level Low) was 103.7 x10_4/uL. The RBC (3 mg/kg, 6 h, dose level Low) was 619.8 x10_4/ul, the Ret (3 mg/kg, 6 h, dose level Low) was 8.8% and the WBC (3 mg/kg, 6 h, dose level Low) was 90.9 x10_2/uL. For the same compound, the KIDNEY_L (3 mg/kg, 6 h, dose level Low) was 0.9 g, the KIDNEY_R (3 mg/kg, 6 h, dose level Low) was 0.9 g and the KIDNEY_TOTAL (3 mg/kg, 6 h, dose level Low) was 1.9 g. The LIVER (3 mg/kg, 6 h, dose level Low) was 9 g, the ALP (3 mg/kg, 6 h, dose level Low) was 897.8 IU/L and the ALT (3 mg/kg, 6 h, dose level Low) was 34.4 IU/L. It also gave an AST (3 mg/kg, 6 h, dose level Low) of 57.2 IU/L, a BUN (3 mg/kg, 6 h, dose level Low) of 9.6 mg/dL and a CRE (3 mg/kg, 6 h, dose level Low) of 0.4 mg/dL. The Ca (3 mg/kg, 6 h, dose level Low) was 10.6 mg/dL, the Cl (3 mg/kg, 6 h, dose level Low) was 105.8 meq/L and the DBIL (3 mg/kg, 6 h, dose level Low) was 0.034 mg/dL. It also gave a GLC (3 mg/kg, 6 h, dose level Low) of 184.4 mg/dL, an IP (3 mg/kg, 6 h, dose level Low) of 10.6 mg/dL and a K (3 mg/kg, 6 h, dose level Low) of 4.9 meq/L. The LDH (3 mg/kg, 6 h, dose level Low) was 81.6 IU/L, the Na (3 mg/kg, 6 h, dose level Low) was 139.2 meq/L and the PL (3 mg/kg, 6 h, dose level Low) was 142 mg/dL. For the same compound, the RALB (3 mg/kg, 6 h, dose level Low) was 3.6 g/dL, the TBIL (3 mg/kg, 6 h, dose level Low) was 0.3 mg/dL and the TC (3 mg/kg, 6 h, dose level Low) was 84.4 mg/dL. It also gave a TG (3 mg/kg, 6 h, dose level Low) of 32.4 mg/dL and a TP (3 mg/kg, 6 h, dose level Low) of 5.4 g/dL.
